In brackets after ≈: the same amount, converted by molar mass. Several values for one entry are separate records, joined by “and”; a condition that tells them apart may be missing. Equal values may be shown once. Read-outs that look alike come from different tables or passages of the source.
Legend:
[1] = system: C. tropicalis; test: MIC testing (CLSI M27-A3); type: cell-based; details: for MIC Range: C. tropicalis strains, in µg/mL; for MIC50 / MIC90: C. tropicalis; for MIC50: inhibits 50% of strains; for MIC90: inhibits 90% of strains
[2] = system: Fusarium strains (Table 18); test: MIC testing (CLSI M38-A2), Table 18; type: cell-based, Fusarium spp.; details: for MIC Range: in µg/mL; for MIC50: inhibits 50% of strains; for MIC90: inhibits 90% of strains
[3] = system: individual Aspergillus spp. (Table 14, species not named); test: MFC determination, Table 14; type: cell-based; details: Aspergillus sp. of Table 14; for MFC50: kills 50% of strains; for MFC90: kills 90% of strains
[4] = system: C. krusei strains; test: MIC testing (CLSI M27-A3); type: cell-based; details: for MIC Range: C. krusei strains, in µg/mL; for MIC50 / MIC90: C. krusei; for MIC50: inhibits 50% of strains; for MIC90: inhibits 90% of strains; for MIC: individual C. krusei strain with elevated MICs to non-polyene comparators (Table 22)
[5] = system: C. glabrata strains; test: MIC testing (CLSI M27-A3); type: cell-based; design: MIC: unit not given beside the values; details: for MIC Range: C. glabrata strains, in µg/mL; for MIC50 / MIC90: C. glabrata; for MIC50: inhibits 50% of strains; for MIC90: inhibits 90% of strains; for MIC: individual C. glabrata strain with elevated MICs to non-polyene comparators (Table 22)
[6] = system: individual Aspergillus spp. (Table 12, species not named); test: MFC determination, Table 12; type: cell-based; details: Aspergillus sp. of Table 12; for MFC50: kills 50% of strains; for MFC90: kills 90% of strains
[7] = system: all Aspergillus strains tested; test: MIC testing (CLSI M38-A2), summary; type: cell-based; details: caspofungin read as MEC; for MIC Range: in µg/mL; for MIC50: inhibits 50% of strains; for MIC90: inhibits 90% of strains
[8] = system: Candida albicans ATCC 10231; test: MIC50 growth inhibition assay of compositions (OD600), Example 12; type: cell-based; details: concentration giving 50% growth inhibition
Procedure: Efficacy of the compositions was determined using Minimum Inhibitory Concentration assays, and the concentration of active compound giving 50% growth inhibition of the indicator organism was reported (MIC50). The assay was performed in well plates with two (Müller-Hinton medium) or three parallel (M19-medium) cell cultures for each condition.
Cell Culture Medium: Müller-Hinton and M19 without NaCl.
Indicator Organism: Candida albicans ATCC 10231
Stock Solutions of the Active Compounds and Control: • Amphotericin B (USP): vacuum dried powder was dissolved in DMSO to 2.5 mg/mL giving a final concentration after inoculation of 2.5 μg/mL in the well with the highest concentration. • compound 1A (custom made): powder was dissolved in DMSO to 2.5 mg/mL giving a final concentration after inoculation of 2.5 μg/ml compound 1A in the well with the highest concentration. It is assumed that the batch is 70% pure. • Example 3 composition: the formulation was a suspension with 18 mg/mL nanoparticles. The suspension was diluted in a medium and C. albicans inoculum to a final concentration of 5 μg/mL of compound 1A and 130 μg/mL of […]. From this solution 10 dilutions were prepared giving 0.009 μg/ml compound 1A in the lowest concentration. • Empty poly(ethylbutyl cyanoacrylate) particles: empty poly(ethylbutyl cyanoacrylate) particles were used as a reference. The empty poly(ethylbutyl cyanoacrylate) was produced in the same manner as those in Examples 2 and 3, with the exception that they were prepared at pH 1, with vanillin concentration of 10% (w/w), and. The particles were diluted in the same manner as Example 3. The highest poly(ethylbutyl cyanoacrylate) concentration tested was 130 μg/mL.
Growth measurements were performed at OD600.

[9] = system: C. glabrata strains; test: MFC determination; type: cell-based; design: MFC: unit not given beside the values; details: for MFC Range: C. glabrata strains; for MFC50 / MFC90: C. glabrata; for MFC50: kills 50% of strains; for MFC90: kills 90% of strains; for MFC: individual C. glabrata strain with elevated MICs to non-polyene comparators (Table 22)
[10] = system: Blastomyces dermatitidis, Coccidioides immitis, and Histoplasma capsulatum strains; type: cell-based; details: dimorphic fungal isolates; in µg/mL
[11] = system: A. fumigatus AF91; test: In vitro activity (MFC) against the infecting strain, Example 17; type: cell-based, Aspergillus fumigatus
Procedure: Minimum Fungicidal Concentration: MFC determinations were performed according to the modifications previously described by Canton et al., Diagn. Microbiol. Infect. Dis., 45:203-206, 2003, and Ghannoum and Isham, Infectious Diseases in Clinical Practice, 15(4):250-253, 2007.
Specifically, the total contents of each clear well from the MIC assay were subcultured onto potato dextrose agar. To avoid antifungal carryover, the aliquots were allowed to soak into the agar and then were streaked for isolation once dry, thus removing the cells from the drug source. Fungicidal activity is defined as ≥99.9% reduction in the number of colony forming units (CFU)/ml from the starting inoculum count, while fungistatic activity is defined as <99.9% reduction. […] MIC and MFC values are considered to be equivalent if they are within 2 dilutions.

[12] = Drug loading and stability by LC-DAD-QTOF / LC-UV; type: physicochemical; details: high concentrations of ascorbic acid
Procedure: The sizes and size distributions were measured using dynamic light scattering (Malvern Zetasizer and Nanoparticles Tracking Analyzer (NTA)) in phosphate buffer (pH 7). Dry weight was determined by drying three sample aliquots at 50° C. overnight. Drug loading and stability was determined weighing/pipetting three sample aliquots, dissolution in DMSO, and dilution for LC-DAD-QTOF analysis. The concentration of compound 1A was determined using three samples of amphotericin B USP as a standard. The LC-QTOF method was: • Mobile phases: 0.1% formic acid [A] and acetonitrile [B] • HPLC system: Agilent 1290 HPLC system with a 1290 DAD connected to a QTOF • Column: Polaris 3 C18, 150×2 mm, 3 μm (Varian) • Column thermostat: 30° C. • Flow rate: 0.3 ml/min • Injection volume: 2 μL • Wavelength: 385 nm for measuring compound 1A/AMB, Scan 190-600 nm • Software: MassHunter Qualitative analysis B.0.600 • Post time: 5 min • QTOF was operated in negative electrospray mode (ESI−) • The HPLC gradient is shown in Table 1.

[13] = system: Aspergillus fumigatus AF91; test: Disseminated Aspergillosis in immunocompromised murine model (CD-1 mice): tissue fungal burden; details: 7 days
[14] = system: C. albicans SC5314; test: In vitro activity (MFC) against the infecting strain, Example 18; type: cell-based, Candida albicans
[15] = system: Paecilomyces strains; test: MFC determination; type: cell-based, Paecilomyces spp.; details: Paecilomyces strains (5)
[16] = Aspergillus fumigatus, read-out: MFC
[17] = Experiment II, 0.5 mg/kg i.v. daily
[18] = Experiment II, 1.0 mg/kg i.v. daily
[19] = Candida albicans, read-out: MFC

SMILES	MIC Range [1]	MIC50 [1] [µg/mL]	MIC90 [1] [µg/mL]	MIC50 [2] [µg/mL]	MIC90 [2] [µg/mL]	MFC50 [3] [µg/mL]	MFC90 [3] [µg/mL]	MIC Range [4]	MIC50 [4] [µg/mL]	MIC90 [4] [µg/mL]	MIC [4] [µg/mL]	MIC Range [5]	MIC50 [5] [µg/mL]	MIC90 [5] [µg/mL]	MFC50 [6] [µg/mL]	MFC90 [6] [µg/mL]	MIC50 [7] [µg/mL]	MIC90 [7] [µg/mL]	MFC50 [9] [µg/mL]	MFC90 [9] [µg/mL]	other results
C[C@@H]1[C@H](O)[C@@H](C)/C=C/C=C/C=C/C=C/C=C/C=C/C=C/[C@H](O[C@@H]2O[C@H](C)[C@@H](O)[C@H](N)[C@@H]2O)C[C@@H]2O[C@](O)(C[C@@H](O)[C@H](O)CC[C@@H](O)C[C@@H](O)C[C@@H](O)CC(=O)O[C@H]1C)C[C@H](O)[C@H]2C [Compound 1A]	0.5-8	1 (≈ 1.12 µM)	8 (≈ 8.95 µM)	2 (≈ 2.24 µM)	4 (≈ 4.47 µM)	2 (≈ 2.24 µM)	4 (≈ 4.47 µM)	0.5-2	1 (≈ 1.12 µM)	2 (≈ 2.24 µM)	0.5 (≈ 0.559 µM)	0.25-2	1 (≈ 1.12 µM)	2 (≈ 2.24 µM)	4 (≈ 4.47 µM)	> 4	2 (≈ 2.24 µM)	2 (≈ 2.24 µM)	1 (≈ 1.12 µM)	2 (≈ 2.24 µM)	MIC Range [2]: 1-4; MIC [5]: 1 (5×) and 2; MIC Range [7]: 0.5-4; MIC50 ([8]; Candida albicans, ATCC10231, M19 medium, read-out: MIC50): 0.18 µg/mL (≈ 0.201 µM); MIC50 ([8]; Candida albicans, ATCC10231, Müller-Hinton medium, read-out: MIC50): 0.06 µg/mL (≈ 0.0671 µM); MFC Range ([9]; in µg/mL): 0.5-2; MFC [9]: 1 (5×) and 2; MIC Range [10]: <0.03-0.25; MFC [11, 16]: 2 µg/mL (≈ 2.24 µM); stability in solution [12]: chemically dehydrated; Kidney tissue fungal burden, Mean log CFUs ± the standard deviation ([13]; Experiment I, 0.5 mg/kg i.v.): 3.16 ± 0.40 log CFUs; Lung tissue fungal burden, Mean log CFUs ± the standard deviation ([13]; Experiment I, 0.5 mg/kg i.v.): 3.46 ± 0.49 log CFUs; Kidney tissue fungal burden, Mean log CFUs ± the standard deviation ([13]; Experiment I, 1.0 mg/kg i.v.): 0.51 ± 1.02 log CFUs; Lung tissue fungal burden, Mean log CFUs ± the standard deviation ([13]; Experiment I, 1.0 mg/kg i.v.): 0.55 ± 1.10 log CFUs; Kidney tissue fungal burden, Mean log CFUs ± the standard deviation [13, 17]: 2.93 ± 0.73 log CFUs; Lung tissue fungal burden, Mean log CFUs ± the standard deviation [13, 17]: 2.75 ± 0.93 log CFUs; Kidney tissue fungal burden, Mean log CFUs ± the standard deviation [13, 18]: 1.16 ± 1.10 log CFUs; Lung tissue fungal burden, Mean log CFUs ± the standard deviation [13, 18]: 1.17 ± 1.15 log CFUs; MFC [14, 19]: 0.5 µg/mL (≈ 0.559 µM)
OC(Cn1cncn1)(Cn1cncn1)c1ccc(F)cc1F [Fluconazole, fluconazole]	0.25-2	0.25 (≈ 0.816 µM)	0.5 (≈ 1.63 µM)	> 32	> 32	> 64	> 64	2-32	16 (≈ 52.2 µM)	32 (≈ 104 µM)	16 (≈ 52.2 µM)		8 (≈ 26.1 µM)	> 64	> 64	> 64	> 64	> 64	> 64	> 64	MIC Range [2]: >32; MFC Range [3]: > 64 µg/mL; MIC ([5]; listed as Flu): 32 and 2 and >64 (2×) and 8 and 64; MFC Range [6]: > 64 µg/mL; MFC Range ([9]; in µg/mL): >64; MFC ([9]; in µg/mL): >64; MFC Range [15]: > 64 µg/mL; MFC [14, 19]: > 64 µg/mL
CC[C@H](C)C[C@H](C)CCCCCCCCC(=O)N[C@H]1C[C@@H](O)[C@@H](NCCN)NC(=O)[C@@H]2[C@@H](O)CCN2C(=O)[C@H]([C@H](O)CCN)NC(=O)[C@H]([C@H](O)[C@@H](O)c2ccc(O)cc2)NC(=O)[C@@H]2C[C@@H](O)CN2C(=O)[C@H]([C@@H](C)O)NC1=O [Caspofungin, caspofungin]	0.06-2	0.25 (≈ 0.229 µM)	0.5 (≈ 0.457 µM)	> 32	> 32	> 32	> 32	0.5-16	1 (≈ 0.915 µM)	4 (≈ 3.66 µM)	16 (≈ 14.6 µM)	0.25-8	0.5 (≈ 0.457 µM)	2 (≈ 1.83 µM)	> 32	> 32	0.25 (≈ 0.229 µM)	0.5 (≈ 0.457 µM)	1 (≈ 0.915 µM)	32 (≈ 29.3 µM)	MIC ([5]; listed as Cas): 2 (2×) and 1 and 4 and 8; MIC Range [7]: 0.125-8; MFC ([9]; listed as Cas): 32 (3×) and 16 and >32; MIC Range [10]: 0.03-0.5; MFC [11, 16]: > 16 µg/mL; Kidney tissue fungal burden, Mean log CFUs ± the standard deviation ([13]; Experiment I, 1.0 mg/kg i.v.): 3.11 ± 0.62 log CFUs; Lung tissue fungal burden, Mean log CFUs ± the standard deviation ([13]; Experiment I, 1.0 mg/kg i.v.): 3.41 ± 0.64 log CFUs; MFC [14, 19]: 32 µg/mL (≈ 29.3 µM)
C[C@@H]1[C@H](O)[C@@H](C)/C=C/C=C/C=C/C=C/C=C/C=C/C=C/[C@H](O[C@@H]2O[C@H](C)[C@@H](O)[C@H](N)[C@@H]2O)C[C@@H]2O[C@](O)(C[C@@H](O)C[C@@H](O)[C@H](O)CC[C@@H](O)C[C@@H](O)CC(=O)O[C@H]1C)C[C@H](O)[C@H]2C(=O)O [Amphotericin B]	0.25-0.5	0.25 (≈ 0.271 µM)	0.5 (≈ 0.541 µM)	0.5 (≈ 0.541 µM)	2 (≈ 2.16 µM)	2 (≈ 2.16 µM)	> 8	0.5-1	0.5 (≈ 0.541 µM)	1 (≈ 1.08 µM)		0.125-1	0.5 (≈ 0.541 µM)	0.5 (≈ 0.541 µM)	8 (≈ 8.66 µM)	> 32	1 (≈ 1.08 µM)	8 (≈ 8.66 µM)	0.5 (≈ 0.541 µM)	1 (≈ 1.08 µM)	MIC Range [7]: 0.25-16; MIC50 ([8]; M19 medium): 0.34 µg/mL (≈ 0.368 µM); MIC50 ([8]; Müller-Hinton medium): 0.04 µg/mL (≈ 0.0433 µM); MFC Range ([9]; in µg/mL): 0.5-1; MIC Range [10]: <0.03-0.125; MFC [11]: 16 µg/mL (≈ 17.3 µM); MFC Range [15]: > 4 µg/mL; MFC [14]: 0.25 µg/mL (≈ 0.271 µM)
